2 molecules from patent EP1205473A1, “VESAMICOL PIPERAZINE DERIVATIVES AND DRUGS CONTAINING THE SAME” (DAIICHI RADIOISOTOPE LABORATORIES, LTD., priority 1999, dated 2001) can be followed below.

Read-outs that look alike come from different tables or passages of the source.

Test [1] concerns the target T1, vesamicol receptors (Rattus norvegicus, UniProt Q62666).
T1 sequence (Q62666 1-530): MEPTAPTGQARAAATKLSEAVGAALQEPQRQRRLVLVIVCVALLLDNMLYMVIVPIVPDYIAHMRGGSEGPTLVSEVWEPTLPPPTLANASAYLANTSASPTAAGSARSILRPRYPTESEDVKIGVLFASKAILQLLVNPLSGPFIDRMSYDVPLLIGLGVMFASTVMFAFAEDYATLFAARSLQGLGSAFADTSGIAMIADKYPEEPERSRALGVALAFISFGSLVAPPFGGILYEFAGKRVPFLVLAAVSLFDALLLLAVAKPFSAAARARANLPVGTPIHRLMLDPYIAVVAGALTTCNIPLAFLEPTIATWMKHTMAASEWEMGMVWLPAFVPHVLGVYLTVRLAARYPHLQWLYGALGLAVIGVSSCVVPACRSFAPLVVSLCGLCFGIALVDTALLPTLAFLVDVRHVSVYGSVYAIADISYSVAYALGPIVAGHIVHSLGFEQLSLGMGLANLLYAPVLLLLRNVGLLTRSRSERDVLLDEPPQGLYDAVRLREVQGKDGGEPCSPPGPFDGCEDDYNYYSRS
The experiment in a line: Inhibition experiment: inhibition of binding of radioactive-iodine-labeled DRC140 to P2 fractions. Also on record: Synaptic vesicles were extracted and separated from the brain of a rat; from tissue; host or cells: rat brain without cerebellum: P2, crude synaptic vesicles, purified synaptic vesicles.

Test [2] deals with serotonin 5-HT2A receptors (Rattus norvegicus, UniProt P14842). The experiment in a line: Receptor binding test: inhibition of tritium-labeled ketanserin binding to brain homogenate. Also on record: species or system Male Wistar rats.
Sequence of serotonin 5-HT2A receptors (P14842 whole entry): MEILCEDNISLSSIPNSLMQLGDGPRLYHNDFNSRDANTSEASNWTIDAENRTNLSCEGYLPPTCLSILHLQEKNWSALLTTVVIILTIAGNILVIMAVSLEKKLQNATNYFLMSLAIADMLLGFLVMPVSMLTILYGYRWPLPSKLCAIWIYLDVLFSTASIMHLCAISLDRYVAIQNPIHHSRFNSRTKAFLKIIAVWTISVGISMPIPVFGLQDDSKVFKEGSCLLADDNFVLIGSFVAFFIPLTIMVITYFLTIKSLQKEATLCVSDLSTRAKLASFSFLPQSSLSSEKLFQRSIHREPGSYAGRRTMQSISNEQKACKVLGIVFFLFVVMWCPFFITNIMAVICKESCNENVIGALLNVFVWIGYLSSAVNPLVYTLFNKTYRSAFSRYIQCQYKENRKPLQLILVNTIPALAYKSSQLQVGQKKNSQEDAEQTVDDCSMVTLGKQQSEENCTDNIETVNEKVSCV
Another test addresses adrenaline α1 receptors. The experiment in a line: Receptor binding test: inhibition of tritium-labeled prazosin binding to brain homogenate. Also on record: species or system Male Wistar rats. To be noted: read-out: inhibitive concentration at 50% (IC50), Receptor Alpha-1; Table 9; high purity derivatives; unit inferred.
The target in the next test is T2, sigma receptors (Cavia porcellus, UniProt Q60492).
T2 construct: The brain was immediately extracted; The cerebellum was removed from the brain; from tissue; host or cells: guinea pig brain without cerebellum, membrane pellet
T2 sequence (Q60492 whole entry): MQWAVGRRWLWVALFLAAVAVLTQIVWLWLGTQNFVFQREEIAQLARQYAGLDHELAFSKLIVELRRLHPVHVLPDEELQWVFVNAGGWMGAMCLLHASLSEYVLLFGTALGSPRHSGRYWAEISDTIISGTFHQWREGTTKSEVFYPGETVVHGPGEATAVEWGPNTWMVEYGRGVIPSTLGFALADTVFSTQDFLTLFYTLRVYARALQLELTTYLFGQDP
The experiment in a line: Receptor binding test: inhibition of tritium-labeled (+) pentazocine binding to brain homogenate. Also on record: species or system male guinea pig.

The target of test [3] is T3, serotonin 5-HT1A receptors (Rattus norvegicus, UniProt P19327).
T3 construct: The hippocampi were immediately collected from the brains; from tissue; host or cells: rat hippocampus membranes
T3 sequence (P19327 1-422): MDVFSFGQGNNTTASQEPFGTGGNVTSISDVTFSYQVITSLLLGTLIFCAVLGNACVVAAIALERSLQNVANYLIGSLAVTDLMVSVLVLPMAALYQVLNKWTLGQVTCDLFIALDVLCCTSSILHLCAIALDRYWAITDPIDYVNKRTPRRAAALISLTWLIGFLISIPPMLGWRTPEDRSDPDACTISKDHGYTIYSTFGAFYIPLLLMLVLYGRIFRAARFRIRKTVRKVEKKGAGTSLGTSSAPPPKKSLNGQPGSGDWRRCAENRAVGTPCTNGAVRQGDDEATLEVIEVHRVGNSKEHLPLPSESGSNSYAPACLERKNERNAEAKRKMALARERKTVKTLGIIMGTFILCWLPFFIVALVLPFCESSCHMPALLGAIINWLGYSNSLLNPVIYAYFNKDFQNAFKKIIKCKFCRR
The experiment in a line: Receptor binding test: inhibition of tritium-labeled 8-hydroxy-DPAT binding to brain (hippocampus) homogenate. The arrangement: species or system Male Wistar rats. How it is done:
Properties relating to binding of the vesamicol piperazine derivatives of the present invention to various receptors were examined as follows. Specifically, ligands which combine with each receptor were incubated together with homogenates prepared as follows.
To measure affinity to serotonin 5-HT1A receptors, tritium-labeled 8-hydroxy-DPAT was added to a brain homogenate prepared as follows. The vesamicol piperazine derivatives synthesized in the Examples were added at various concentrations, and the mixture was incubated for 30 minutes at 37°C. To measure affinity to serotonin 5-HT2A receptors, tritium-labeled ketanserin was added to a brain homogenate prepared as follows. The vesamicol piperazine derivatives synthesized in the Examples were added at various concentrations, and the mixture was incubated for 15 minutes at 37°C.
B (%) =((1 0 0 × [U])^(∩))/([ I C50 (])^(∩) (+ [U])^(∩)) [formula] wherein B(%) is the proportion of specific binding in the total binding, n indicates a Hill coefficient, and U is the concentration of unbound ligand.
Male Wistar rats were anesthetized with ether and were decapitated and the brains quickly extracted. The hippocampi were immediately collected from the brains. A 40-fold (vol/wt) amount of ice cooled 50 mM Tris-HCl buffer (pH 7.4) was added to the hippocampi. The mixture was homogenized using a potter-type homogenizer. The homogenate was centrifuged at 40,000 x g for 20 minutes. The supernatant liquid was removed and the resulting pellets were suspended in a 40-fold amount of Tris-HCl buffer solution. The suspension was centrifuged and the Tris buffer solution was again added to the pellets. This procedure was repeated twice. The product thus obtained was homogenized using a 40-fold amount of Tris-HCl buffer solution and incubated for 10 minutes at 37°C to remove endogenic 5-HT. The cell membrane was collected by centrifugation, washed twice, and suspended in a 10-fold amount of 50 mM Tris-HCl buffer solution (pH 7.4). The suspension thus obtained was stored at -80°C until the start of the binding experiment.

The target in test [4] is T1, vesamicol receptors. The experiment in a line: Inhibition experiment: inhibition of binding of radioactive-iodine-labeled DRC140 to purified synaptic vesicle fractions. Also on record: Synaptic vesicles were extracted and separated from the brain of a rat; from tissue; host or cells: rat brain without cerebellum: P2, crude synaptic vesicles, purified synaptic vesicles.

On to `O[C@@H]1Cc2cccc(I)c2C[C@H]1N1CCC(c2ccccc2)CC1` [(-)-IBVM, 5-iodobenzovesamicol, reference compound], for which the IC50 is 0.32 nM on vesamicol receptors [1] (read-out: inhibitive concentration at 50% (IC50), Receptor Vesamicol); above 5 µM in test [2] (read-out: inhibitive concentration at 50% (IC50), Receptor 5-HT2A); 2.61 nM at adrenaline α1 receptors; 174 nM on sigma receptors (read-out: inhibitive concentration at 50% (IC50), Receptor Sigma-1); 119 nM in test [3] (read-out: inhibitive concentration at 50% (IC50), Receptor 5-HT1A).
With `OC1CCCCC1N1CCC(c2ccccc2)CC1` (single isomer, unassigned; (-)) [(-)-Vesamicol, 2-(4-phenyl-piperidino)cyclohexanol, reference compound], the IC50 is 58.2 ± 17.3 nM at vesamicol receptors [1] (IC50 (nM) Average ± S.D); 45.4 nM on vesamicol receptors [1] (inhibitive concentration at 50% (IC50), Receptor Vesamicol); above 5 µM in test [2]; 45.4 ± 3.59 nM on vesamicol receptors [4]; 66.5 nM on sigma receptors; above 5000 nM in test [3].
